Experimental data taken from US4492693A, “Benzothienylglycyl cephalosporin derivatives” (priority 1983, dated 1985).
Values after ≈ are worked out from the molar mass of the structure shown. Read-outs that look alike come from different tables or passages of the source.

How the values were obtained:
Test in all cases: Agar Dilution MIC (Table I)
Assay type in all cases: cell-based
[1] = tested on: Staph. aureus; conditions: Staphylococcus aureus
[2] = tested on: Staph. epi; conditions: read-out: Agar Dilution MIC
[3] = tested on: Strep. A; conditions: strain C203; read-out: Agar Dilution MIC
[4] = tested on: Strep. PN; conditions: strain PARK
[5] = tested on: Strep. D; conditions: for MIC: read-out: Agar Dilution MIC
Source text: A typical and preferred compound provided by this invention is 7-(3-benzothienyl)glycylamido-3-methyl-3-cephem-4-carboxylic acid, the compound illustrated in Example 9. The antibacterial activity of this compound has been determined in standard in vitro agar dilution assays against a variety of gram positive and gram negative microorganism. The following Tables present typical minimum inhibitory concentrations (MIC's) in μg/ml for several compounds of the invention when evaluated against the indicated microorganisms. MIC's for several known compounds are also presented for comparison.
Agar Dilution MIC (μg/ml)

[6] = tested on: H. influ.; conditions: read-out: Agar Dilution MIC
[7] = tested on: E. coli; conditions: Escherichia coli
[8] = tested on: Klebsiella; conditions: for MIC: Klebsiella, read-out: Agar Dilution MIC
[9] = read-out: Agar Dilution MIC, strain S13E
[10] = strain V41, read-out: Agar Dilution MIC
[11] = strain X1.1, read-out: Agar Dilution MIC
[12] = strain X400, read-out: Agar Dilution MIC

Row | SMILES | MIC [1, 9] | MIC [1, 10] | MIC [1, 11] | MIC [1, 12] | MIC ([2]; strain 222) | MIC [3] | MIC [4] | MIC ([6]; strain 76) | MIC ([7]; strain EC14) | MIC ([7]; strain N10) | MIC ([7]; strain TEM) | MIC ([2]; strain EPI1) | MIC ([5]; strain 2041) | MIC ([5]; strain X66) | MIC ([6]; strain C.L.) | MIC ([8]; strain KAE) | MIC ([8]; strain X26) | MIC ([8]; strain X68) | also measured
1 | CC1=C(C(=O)O)N2C(=O)C(NC(=O)[C@@H](N)c3csc4cccc(Cl)c34)C2SC1 (stereo partly drawn) [Ex. 36A, L-7-(4-chloro-3-benzothienyl)glycylamido-3-methyl-3-cephem-4-carboxylic acid] | 128 µg/mL (≈ 292 µM) | 128 µg/mL (≈ 292 µM) | 64 µg/mL (≈ 146 µM) | 128 µg/mL (≈ 292 µM) | 64 µg/mL (≈ 146 µM) | 16 µg/mL (≈ 36.5 µM) | 8 µg/mL (≈ 18.3 µM) | 4 µg/mL (≈ 9.13 µM) | 128 µg/mL (≈ 292 µM) | 128 µg/mL (≈ 292 µM) | 128 µg/mL (≈ 292 µM) |  |  |  |  |  |  |  | MIC [2]: 128 µg/mL (≈ 292 µM); MIC [5]: 128 µg/mL (≈ 292 µM); Agar Dilution MIC ([5]; strain 2041): 128 µg/mL; MIC [6]: 128 µg/mL (≈ 292 µM); MIC [8]: 128 µg/mL (≈ 292 µM); Agar Dilution MIC ([8]; strain KAE): 128 µg/mL; Agar Dilution MIC ([8]; strain X68): 128 µg/mL
2 | CC1=C(C(=O)O)N2C(=O)C(NC(=O)[C@H](N)c3csc4cc(Cl)ccc34)C2SC1 (stereo partly drawn) [Ex. 37B, D-7-(6-chloro-3-benzothienyl)glycylamido-3-methyl-3-cephem-4-carboxylic acid] |  | 8 µg/mL (≈ 18.3 µM) | 1 µg/mL (≈ 2.28 µM) | 16 µg/mL (≈ 36.5 µM) | 2 µg/mL (≈ 4.57 µM) | 0.5 µg/mL (≈ 1.14 µM) | 1 µg/mL (≈ 2.28 µM) | 1 µg/mL (≈ 2.28 µM) | 128 µg/mL (≈ 292 µM) | 128 µg/mL (≈ 292 µM) | 128 µg/mL (≈ 292 µM) | 4 µg/mL (≈ 9.13 µM) | 32 µg/mL (≈ 73.1 µM) | 128 µg/mL (≈ 292 µM) | 8 µg/mL (≈ 18.3 µM) | 128 µg/mL (≈ 292 µM) | 4 µg/mL (≈ 9.13 µM) | 128 µg/mL (≈ 292 µM) | 
3 | CC1=C(C(=O)O)N2C(=O)C(NC(=O)[C@H](N)c3csc4ccc(Cl)cc34)C2SC1 (stereo partly drawn) [Ex. 38B, D-7-(5-chloro-3-benzothienyl)glycylamido-3-methyl-3-cephem-4-carboxylic acid] |  | 4 µg/mL (≈ 9.13 µM) | 1 µg/mL (≈ 2.28 µM) | 8 µg/mL (≈ 18.3 µM) | 2 µg/mL (≈ 4.57 µM) | 0.25 µg/mL (≈ 0.571 µM) | 0.25 µg/mL (≈ 0.571 µM) |  | 64 µg/mL (≈ 146 µM) | 64 µg/mL (≈ 146 µM) | 64 µg/mL (≈ 146 µM) | 4 µg/mL (≈ 9.13 µM) | 32 µg/mL (≈ 73.1 µM) | 64 µg/mL (≈ 146 µM) |  | 64 µg/mL (≈ 146 µM) | 2 µg/mL (≈ 4.57 µM) | 64 µg/mL (≈ 146 µM) | 
4 | C=CC1=C(C(=O)O)N2C(=O)C(NC(=O)[C@H](N)c3csc4ccccc34)C2SC1 (stereo partly drawn) [Ex. 35, D-7-(3-Benzothienylglycylamido)-3-vinyl-3-cephem-4-carboxylic acid] |  | 16 µg/mL (≈ 38.5 µM) | 2 µg/mL (≈ 4.81 µM) | 32 µg/mL (≈ 77 µM) | 2 µg/mL (≈ 4.81 µM) |  |  | 1 µg/mL (≈ 2.41 µM) | 128 µg/mL (≈ 308 µM) | 128 µg/mL (≈ 308 µM) | 128 µg/mL (≈ 308 µM) | 8 µg/mL (≈ 19.3 µM) | 32 µg/mL (≈ 77 µM) | 64 µg/mL (≈ 154 µM) | 8 µg/mL (≈ 19.3 µM) | 128 µg/mL (≈ 308 µM) | 8 µg/mL (≈ 19.3 µM) | 128 µg/mL (≈ 308 µM) | 
5 | CC1(C)S[C@@H]2[C@H](NC(=O)[C@H](N)c3ccccc3)C(=O)N2[C@H]1C(=O)O [Ampicillin, reference compound] |  |  |  |  |  |  |  | 16 µg/mL (≈ 45.8 µM) | 4 µg/mL (≈ 11.4 µM) | 8 µg/mL (≈ 22.9 µM) |  |  |  | 4 µg/mL (≈ 11.4 µM) | 0.5 µg/mL (≈ 1.43 µM) |  |  |  | 
6 | CC1=C(C(=O)O)N2C(=O)C(NC(=O)[C@@H](N)c3csc4ccc(Cl)cc34)C2SC1 (stereo partly drawn) [Ex. 38A, L-7-(5-chloro-3-benzothienyl)glycylamido-3-methyl-3-cephem-4-carboxylic acid] | 16 µg/mL (≈ 36.5 µM) | 32 µg/mL (≈ 73.1 µM) | 8 µg/mL (≈ 18.3 µM) | 64 µg/mL (≈ 146 µM) | 16 µg/mL (≈ 36.5 µM) | 1 µg/mL (≈ 2.28 µM) | 2 µg/mL (≈ 4.57 µM) | 2 µg/mL (≈ 4.57 µM) | 64 µg/mL (≈ 146 µM) | 64 µg/mL (≈ 146 µM) | 64 µg/mL (≈ 146 µM) | 16 µg/mL (≈ 36.5 µM) | 64 µg/mL (≈ 146 µM) | 64 µg/mL (≈ 146 µM) | 32 µg/mL (≈ 73.1 µM) | 64 µg/mL (≈ 146 µM) | 16 µg/mL (≈ 36.5 µM) | 64 µg/mL (≈ 146 µM) | 
